From patent publication US10307420B2, “Treating sexual desire disorders with flibanserin” (Sprout Pharmaceuticals, Inc., priority 2001, dated 2019)

Key:
[1] = studies of male and female patients suffering from sexual dysfunction; assay type: in vivo, human patients
Source text: Accordingly, the instant invention relates to the use of flibanserin, optionally in form of the pharmacologically acceptable acid addition salts thereof for the preparation of a medicament for the treatment of disorders of sexual desire.

5-HT1A receptor = target: T1, 5-HT1A receptor (Homo sapiens, UniProt P08908); conditions: statement in the background, no value; cited from earlier work
T1 sequence (P08908 1-422): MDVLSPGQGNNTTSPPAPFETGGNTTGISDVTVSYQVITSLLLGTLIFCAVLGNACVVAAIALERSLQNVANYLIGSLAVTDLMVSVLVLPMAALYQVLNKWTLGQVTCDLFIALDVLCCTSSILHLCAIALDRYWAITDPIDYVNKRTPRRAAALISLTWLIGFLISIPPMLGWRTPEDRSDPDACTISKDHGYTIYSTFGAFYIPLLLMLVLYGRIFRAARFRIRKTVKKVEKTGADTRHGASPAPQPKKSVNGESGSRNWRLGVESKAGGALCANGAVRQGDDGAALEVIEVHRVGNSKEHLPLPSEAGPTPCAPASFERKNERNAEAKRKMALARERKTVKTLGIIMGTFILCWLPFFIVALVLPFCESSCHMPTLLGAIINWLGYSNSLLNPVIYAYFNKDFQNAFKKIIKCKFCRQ

5HT2-receptor = conditions: statement in the background, no value; cited from earlier work

O=c1[nH]c2ccccc2n1CCN1CCN(c2cccc(C(F)(F)F)c2)CC1 [Flibanserin, 1-[2-(4-(3-trifluoromethyl-phenyl)piperazin-1-yl)ethyl]-2,3-dihydro-1H-benzimidazol-2-one]
sexual desire enhancing properties [1]: displays sexual desire enhancing properties | affinity for the 5-HT1A receptor (5-HT1A receptor): shows affinity | affinity for the 5HT2-receptor (5HT2-receptor): shows affinity
